Test results: patent publication US20140105891A1, “TREATMENT OF CANCER” (CERULEAN PHARMA INC., priority 2012, published 2014)

Experiments:
[1] = system: HIF-2α; experiment: HIF-2α levels in A2780 xenograft after CRLX101 and Bevacizumab (Western blot); format: in vivo, mouse; settings: CRLX101 5 mg/kg i.v. q7d×2, Bevacizumab 5 mg/kg i.p. Day 1, 4, 8, tumors Day 11
Protocol: (§1) Tumor samples were collected on Day 11, 72 hours after the last treatment (Day 8 for both drugs) and analyzed for HIF-1α and HIF-2α levels using Western blot.

[2] = system: HIF-1α; experiment: HIF-1α levels in A2780 xenograft after CRLX101 and Bevacizumab (Western blot); format: in vivo, mouse; settings: CRLX101 5 mg/kg i.v. q7d×2, Bevacizumab 5 mg/kg i.p. Day 1, 4, 8, tumors Day 11
Protocol: as §1

[3] = system: A2780 Ovarian Xenograft Tumors; experiment: A2780 ovarian xenograft tumor growth / response rate; format: in vivo, mouse; settings: A2780, Day 42; CRLX101 5 mg/kg IV q7d×3; Bevacizumab 5 mg/kg i.p. biweekly×3; combination at same doses
[4] = system: H1299 human NSCLC xenograft; experiment: H1299 NSCLC xenograft tumor growth delay; settings: for tumor-free survival (TFS): CRLX101 10 mg/kg qwk×3, marketed drugs on optimal preclinical regimens; for median tumor volume (MTV) of survivors: D74 survivors, Gemcitabine 120 mg/kg
Protocol: H1299 cells were obtained from the American Type Culture Collection (ATCC), and the tumor line was maintained by serial engraftment in nude mice.
Body weight was measured daily on Days 1-5, then twice weekly until the completion of the study. Tumor volume was measured twice weekly and each animal was euthanized when the calculated tumor volume reached the 2000 mm^3 endpoint, or on day-88 post implantation, whichever came first.

Bevacizumab: antibody against VEGF
HIF-2α % of Control [1]: 146 % of Control | HIF-1α % of Control [2]: 157 % of Control | Partial Response (# of mice) [3]: 0 of 10

CC[C@@]1(O)C(=O)OCc2c1cc1n(c2=O)Cc2cc3c(CN(C)C)c(O)ccc3nc2-1 [Topotecan]
tumor-free survival (TFS) ([4]; 74 days post first treatment): 10%

CC(=O)O[C@@]12CO[C@@H]1C[C@H](O)[C@@]1(C)C(=O)[C@H](O)C3=C(C)[C@@H](OC(=O)[C@H](O)[C@@H](NC(=O)OC(C)(C)C)c4ccccc4)C[C@@](O)([C@@H](OC(=O)c4ccccc4)[C@H]21)C3(C)C [Docetaxel]
survival ([4]; 74 days post first treatment, docetaxel 30 mg/kg qwk×3): 20% | median tumor volume (MTV) of survivors ([4]; Docetaxel 30 mg/kg): 302 mm3 | group mean body weight loss ([4]; Docetaxel 30 mg/kg, on D21): 9.3%

Nc1ccn([C@@H]2O[C@H](CO)[C@@H](O)C2(F)F)c(=O)n1 [Gemcitabine]
tumor-free survival (TFS) ([4]; 74 days post first treatment): 50% | median tumor volume (MTV) of survivors ([4]; Docetaxel 30 mg/kg): 0 mm3
